Reference: patent US9169240B2, “Ketone linked benzothiazole inhibitors of endothelial lipase” (BRISTOL-MYERS SQUIBB COMPANY, priority 2012, dated 2015)

Target: Endothelial lipase (EL) (Homo sapiens (Human), UniProt Q9Y5X9)
Assay: Endothelial lipase (EL) activity assay with fluorescent substrate A10070 in DMPG vesicles
Assay type: biochemical
Procedure: Endothelial lipase activity was measured using a fluorescent substrate, A10070, (Invitrogen, CA) doped into an artificial vesicle containing DMPG (Avanti Polar Lipids) as the excipient. Vesicles were prepared by combining 285 μL of 1 mM DMPG in a 1:1 mixture of MeOH and CHCl3 with 15 μL of 1 mM A10070 in a 1:1 mixture of MeOH and CHCl3. The mixture was dried under nitrogen and resuspended in 150 μL of 50 mM HEPES pH 8.0 buffer containing 100 mM NaCl and 0.2 mM EDTA. The sample was allowed to sit at rt for 15 min and then was sonicated 3×4 mins on ice with a Branson Sonicator using duty cycle 1. This preparation provides vesicles with a mole fraction of 0.05 for the FRET substrate.
The enzymatic assay was measured using white, opaque 96-well half area plates. Each well contained 60 μL of assay buffer (50 mM HEPES pH 8.0, 50 mM NaCl and 1 mM CaCl2) and 2 ul of a DMSO solution containing compound of interest. Conditioned media obtained from HT-1080 cells, which were transformed by RAGE technology (Athersys) to overexpress endogenous EL, was added and the reaction was allowed to incubate for 20 min at 37° C. with gentle agitation. The reaction was started by the addition of 20 μL of a 1:4 dilution of vesicles. The final total reaction volume was 100 μL. The reaction rates were measured on a Gemini plate reader with an excitation wavelength of 488 nm and an emission of 530 nm. Readings were taken every 20 seconds for 10 min with agitation between each reading. The slope of the linear portion of the readout was used to calculate the rate of the reaction.

Sequence of Endothelial lipase (EL) (Q9Y5X9 21-500): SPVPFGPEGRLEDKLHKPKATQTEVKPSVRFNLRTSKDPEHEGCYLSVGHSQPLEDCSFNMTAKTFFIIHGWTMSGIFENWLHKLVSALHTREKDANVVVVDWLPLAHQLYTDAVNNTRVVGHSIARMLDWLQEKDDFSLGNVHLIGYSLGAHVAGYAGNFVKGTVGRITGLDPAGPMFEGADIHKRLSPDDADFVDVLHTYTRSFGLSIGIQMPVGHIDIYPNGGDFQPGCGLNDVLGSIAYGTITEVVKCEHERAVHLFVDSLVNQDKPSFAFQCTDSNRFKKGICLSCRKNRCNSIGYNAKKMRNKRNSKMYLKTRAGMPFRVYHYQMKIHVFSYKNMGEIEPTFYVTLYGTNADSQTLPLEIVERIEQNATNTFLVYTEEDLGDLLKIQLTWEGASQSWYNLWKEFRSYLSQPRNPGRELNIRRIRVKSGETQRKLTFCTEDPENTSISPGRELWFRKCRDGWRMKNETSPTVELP

IC50 | SMILES
450 nM | O=C(c1nnc(N2CC[C@H](c3ccccc3)C2)o1)c1nc2ccc(-c3ccccc3)cc2s1 [Example 80, (R)-(6-phenylbenzo[d]thiazol-2-yl)(5-(3-phenylpyrrolidin-1-yl)-1,3,4-oxadiazol-2-yl)methanone]
490 nM | O=C(c1nnc(N2CC[C@H](OCc3ccccc3)C2)o1)c1nc2ccc(-c3ccccc3)cc2s1 [Example 81, (S)-(5-(3-(benzyloxy)pyrrolidin-1-yl)-1,3,4-oxadiazol-2-yl)(6-phenylbenzo[d]thiazol-2-yl)methanone]
< 10 nM | O=C(c1nnc(N[C@H]2CCNC2=O)o1)c1nc2ccc(-c3ccc(OC(F)F)cc3)cc2s1 [Example 82, (S)-3-((5-(6-(4-(difluoromethoxy)phenyl)benzo[d]thiazole-2-carbonyl)-1,3,4-oxadiazol-2-yl)amino)pyrrolidin-2-one]
< 10 nM | NS(=O)(=O)c1ccc(-c2ccc3nc(C(=O)c4nnc(N[C@H]5CCNC5=O)o4)sc3c2)cc1 [Example 83, (S)-4-(2-(5-((2-oxopyrrolidin-3-yl)amino)-1,3,4-oxadiazole-2-carbonyl)benzo[d]thiazol-6-yl)benzenesulfonamide]
< 10 nM | O=C(c1nnc(N(CC(F)(F)F)[C@H]2CCNC2=O)o1)c1nc2ccc(-c3ccccc3)cc2s1 [Example 84, (S)-3-((5-(6-Phenylbenzo[d]thiazole-2-carbonyl)-1,3,4-oxadiazol-2-yl)(2,2,2-trifluoroethyl)amino)pyrrolidin-2-one]
35 nM | O=C(c1nnc(N(Cc2nnc(C3CC3)o2)[C@H]2CCNC2=O)o1)c1nc2ccc(-c3ccccc3)cc2s1 [Example 85, (S)-3-(((5-Cyclopropyl-1,3,4-oxadiazol-2-yl)methyl)(5-(6-phenylbenzo[d]thiazole-2-carbonyl)-1,3,4-oxadiazol-2-yl)amino)pyrrolidin-2-one]
101 nM | CN(c1nnc(C(=O)c2nc3ccc(-c4ccccc4)cc3s2)o1)[C@H]1CCNC1=O [Example 86, (S)-3-(Methyl(5-(6-phenylbenzo[d]thiazole-2-carbonyl)-1,3,4-oxadiazol-2-yl)amino)pyrrolidin-2-one]
11 nM | O=C(c1nnc(N(Cc2ccccc2)[C@H]2CCNC2=O)o1)c1nc2ccc(-c3ccccc3)cc2s1 [Example 87, (S)-3-(Benzyl(5-(6-phenylbenzo[d]thiazole-2-carbonyl)-1,3,4-oxadiazol-2-yl)amino)pyrrolidin-2-one]
494 nM | O=C(c1nnc(N2CCN(c3ccc(C(F)(F)F)cc3)CC2)o1)c1nc2ccc(-c3ccccc3)cc2s1 [Example 88, (6-Phenylbenzo[d]thiazol-2-yl)(5-(4-(4-(trifluoromethyl)phenyl)piperazin-1-yl)-1,3,4-oxadiazol-2-yl)methanone]
29 nM | Nc1nnc(C(=O)c2nc3ccc(-c4ccccc4)cc3s2)o1 [Example 89, (5-Amino-1,3,4-oxadiazol-2-yl)(6-phenylbenzo[d]thiazol-2-yl)methanone]
340 nM | Cc1ccc(S(=O)(=O)Nc2nnc(C(=O)c3nc4ccc(-c5ccccc5)cc4s3)o2)cc1 [Example 90, 4-Methyl-N-(5-(6-phenylbenzo[d]thiazole-2-carbonyl)-1,3,4-oxadiazol-2-yl)benzenesulfonamide]
490 nM | O=C(c1nnc(N[C@H]2CCN(CC(F)(F)F)C2=O)o1)c1nc2ccc(-c3ccccc3)cc2s1 [Example 91, (S)-3-((5-(6-Phenylbenzo[d]thiazole-2-carbonyl)-1,3,4-oxadiazol-2-yl)amino)-1-(2,2,2-trifluoroethyl)pyrrolidin-2-one]
